Measured values as given in PubChem BioAssay AID1322 (NMMLSC, 2008).
Calls of active or inactive are those of the source. The rule behind the calls is not given here.

Target: Bcl-2-like protein 1 (Homo sapiens) (UniProt Q07817)
Experiment: Bcl-XL binding to Bim peptide disruption – biochemical, multiplexed, bead flow cytometry, human Bcl-XL, dose response (AID 1322); for inhibition: test concentration not given here
Settings: Bead-based flow cytometry, MCF; for inhibition: stronger effect = higher value

Chain of Bcl-2-like protein 1 (Homo sapiens) (Q07817 whole entry, looked up): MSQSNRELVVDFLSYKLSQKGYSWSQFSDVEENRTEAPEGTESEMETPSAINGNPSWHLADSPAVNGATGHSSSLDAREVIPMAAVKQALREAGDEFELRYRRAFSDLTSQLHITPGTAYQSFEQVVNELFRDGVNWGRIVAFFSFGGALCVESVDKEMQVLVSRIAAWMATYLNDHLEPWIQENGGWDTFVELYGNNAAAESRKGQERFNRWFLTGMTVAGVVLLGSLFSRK

| Compound | inhibition | outcome |
| --- | --- | --- |
| C#CCOCCOCCOCCNc1nc(N2CCN(C(=O)[C@H]([C@@H](C)CC)n3cc([C@@H](N)CC(C)C)nn3)CC2)nc(N2CCN(C(=O)[C@H](Cc3cc4ccccc4[nH]3)n3cc([C@@H](N)Cc4ccc(O)cc4)nn3)CC2)n1 | inactive |  |
| COC(=O)c1cc(OC)c(OC)cc1NC(=O)Nc1cccc(C(C)=O)c1 | inactive |  |
| NC(=O)c1c(NC(=O)C2CCCO2)sc2c1CCCCC2 (configuration not stated) | inactive |  |
| NCC(c1ccccc1)c1c[nH]c2ccccc12 (configuration not stated) | inactive |  |
| O=C(C1=NN[C@@H]2C(=O)N(c3ccccc3C(F)(F)F)C(=O)[C@H]12)c1ccc2ccccc2n1 |  | inactive |
| COc1ccc(C(=O)Nc2ccc(NC(=O)c3cccs3)cc2)cc1Cl | inactive |  |
| COc1ccc(COC(=O)NNC(=O)c2ccccc2Cl)cc1 | inactive |  |
| CN(CCCOc1ccccc1Br)Cc1ccccc1 | inactive |  |
| CC(C)(C)C1CCC(=NNC(=O)c2cc3c(s2)CCCC3)CC1 (configuration not stated) | inactive |  |
| CN1CCS/C1=C/C=C1/SC(=S)N(Cc2ccccc2)C1=O | inactive |  |
| Cc1ccc(NC2=C(NC(=O)c3ccccc3)C(=O)c3ccccc3C2=O)cc1Cl | inactive |  |
| Cc1cc(N)ccc1N1CCCC1 | inactive |  |
| Cn1c(=O)[nH]c(=O)c2c1nc(N1CCOCC1)n2CCSc1nc2ccccc2[nH]1 | inactive |  |
| COc1ccc(-c2nnc(SCC(=O)Nc3nc4ccccc4s3)n2C)cc1 | inactive |  |
| O=C(NCCCN1CCCC1=O)NC1CCCCC1 | inactive |  |
| O=C(O)c1ccc(NC2=C/C(=N/S(=O)(=O)c3ccccc3)c3ccccc3C2=O)cc1 | inactive |  |
| Clc1nssc1=Nc1ccccc1 | inactive |  |
| Cc1cc(C)n(CC(=O)N/N=C/c2cccc([N+](=O)[O-])c2)n1 |  | inactive |
| Cc1ccc2nc3c(cc(C(N)=S)c(=N)n3CCCOC(C)C)c(=O)n2c1 | inactive |  |
| COc1ccccc1Nc1nc(-c2c(C)nc3ncccn23)cs1 | inactive |  |
| COc1ccc2nc(NC(=O)c3ccc(-c4cccc([N+](=O)[O-])c4)o3)sc2c1 | inactive |  |
| O=C(NC1=NCCS1)NC12CC3CC(CC(C3)C1)C2 | inactive |  |
| COC(=O)CCC(=O)Nc1sc(C)c(C)c1C(N)=O | inactive |  |
| O=C1c2ccccc2C(=O)c2cc(S(=O)(=O)Nc3ccccc3)ccc21 |  | inactive |
| CN=c1scc(C)n1/N=C/c1ccc(O)c(O)c1O | inactive |  |
| COc1ccc(NC(=O)C2=C(C)NC(=O)NC2c2cccc(OC)c2OC)c(OC)c1 (configuration not stated) | inactive |  |

| Compound | inhibition | outcome |
| --- | --- | --- |
| CNc1nc2ccccc2n1/N=C/c1cccc(OC)c1OC | inactive |  |
| BrC(=C\c1ccccc1)/C=N/N1CCN(c2ccccc2)CC1 |  | inactive |
| O=C(OCc1nc2ccccc2[nH]1)C12CC3CC(CC(C3)C1)C2 | inactive |  |
| Cc1ccc(/C=C/C(=O)c2ccccc(=O)c2O)c(C)c1 | inactive |  |
| Cc1ccc2c(C)c(C(=O)Nc3nnc(C)s3)oc2c1 | inactive |  |
| Cc1cc(N2CCN(C)CC2)nc2ccc(NC(=S)N3CCN(c4ccc(F)cc4)CC3)cc12 | inactive |  |
| Cn1c(N)c(C(=O)COC(=O)c2cc(-c3ccco3)nc3ccccc23)c(=O)n(C)c1=O | inactive |  |
| COc1ccc(NC(=O)c2sccc2SCc2cccc(C(F)(F)F)c2)cc1 | inactive |  |
| CC(C)(C)C(=O)NC(NC(=S)Nc1ccc(S(N)(=O)=O)cc1)C(Cl)(Cl)Cl (configuration not stated) | inactive |  |
| O=C(c1cc2ccccc2oc1=O)N(c1ccccc1)C1C=CS(=O)(=O)C1 (configuration not stated) | inactive |  |
| Cc1c(NC2=C(Cl)C(=O)N(c3ccccc3Cl)C2=O)c(=O)n(-c2ccccc2)n1C | inactive |  |
| Cc1nc2cc(F)ccc2n1C1CCN(C(=O)c2c(F)cccc2F)CC1 | inactive |  |
| Cc1ccc(-c2n[nH]c(=S)n2-c2ccccc2)cc1 | inactive |  |
| C=CCn1c(SCC(=O)Nc2ccc3c(c2)OCO3)nnc1-c1cc(Br)ccc1O | inactive |  |
| CCOc1cc(S(=O)(=O)N2CCCCC2)ccc1F | inactive |  |
| Fc1ccccc1-n1cc(-c2ccccc2)[nH]c1=S | inactive |  |
| CC(C)C(=O)NC(c1ccccc1)c1cc([N+](=O)[O-])c2cccnc2c1O (configuration not stated) |  | inactive |
| CC1=CC(=O)c2ccccc2C1=O | inactive |  |
| CCC(=O)OCCNc1cc(Sc2nccn2C)c2nonc2c1[N+](=O)[O-] |  | inactive |
| Cc1cc(C)c[n+](-c2nc3ccccc3nc2C(=C=[N-])C#N)c1 | inactive |  |
| Cn1c(N)c(C(=O)COC(=O)c2cncc(Br)c2)c(=O)n(C)c1=O |  | inactive |
| COc1cc(NC(=S)NCCCO)c(OC)cc1Cl | inactive |  |
| CCn1c(C)c(/C=N/Nc2nc3ccccc3s2)c2ccccc21 | inactive |  |
| CC1Cc2ccccc2N1C(=O)c1ccc(N2CCCC2)c([N+](=O)[O-])c1 (configuration not stated) | inactive |  |
| CCC(CC)C(=O)Nc1cccc(SC)c1 | inactive |  |
| O=C(Nc1ccncc1)c1cc2ccccc2o1 | inactive |  |

| Compound | inhibition | outcome |
| --- | --- | --- |
| CCNC(=O)N1c2ccc(OCC)cc2C(C)=CC1(C)C | inactive |  |
| CN1CCN(c2ccccc2N)CC1 | inactive |  |
| O=C(Nc1ccc(N2CCOCC2)cc1)Nc1ccc2nc(-c3ccco3)c(-c3ccco3)nc2c1 | inactive |  |
| CCOC(=O)CSC1=NC(=O)/C(=C/c2ccc(Br)cc2)S1 |  | inactive |
| CN(Cc1cccs1)C(=O)CCc1c[nH]c2ccccc12 |  | inactive |
| CN(C)C(Cc1ccccc1)C(=O)c1cccs1 (configuration not stated) |  | inactive |
| O=C(NC1=C(Nc2ccc(F)cc2)C(=O)c2ccccc2C1=O)c1ccc(Cl)cc1 | inactive |  |
| CC(NC(=O)Nc1ccccn1)N1C(=O)C2C3C=CC(C3)C2C1=O (configuration not stated) | inactive |  |
| c1csc(C2=Nn3c(nnc3-c3ccncc3)SC2)c1 | inactive |  |
| COc1ccc(C)cc1Nc1ccc(C(=O)O)cc1[N+](=O)[O-] |  | inactive |
| Cc1nonc1NC(=O)CSc1nnc(-c2ccoc2C)n1C | inactive |  |
| CCN1C(=O)/C(=C\C=C2/C=CC=CN2CC)SC1=S | inactive |  |
| CCN(CC)c1ccc(NC(=O)c2ccccc2Br)cc1S(=O)(=O)Nc1ccccc1OC | inactive |  |
| CCC(CC)C(=O)Nc1cccc(S(=O)(=O)c2cccc(NC(=O)C(CC)CC)c2)c1 | inactive |  |
| CCc1nn2cc(C(=O)c3cc(C)ccc3O)cnc2c1-c1ccc(F)cc1 | inactive |  |
| Cc1ccnc(NS(=O)(=O)c2ccc(NC(=O)c3c(-c4ccccc4Cl)noc3C)cc2)n1 | inactive |  |
| O=C1/C(=C\c2ccco2)NC(=S)N1c1ccccc1 | inactive |  |
| CCN(CC)c1ccc(NC2=C(Cl)C(=O)c3ccccc3C2=O)cc1 |  | inactive |
| CC(=O)c1ccc2c(c1)C1C=CCC1C(c1ccncc1)N2 (configuration not stated) | inactive |  |
| CCCCC(=O)Nc1ccc(C(=O)N2CCC(C(=O)OCC)CC2)cc1 | inactive |  |
| CC(C)CNC(=O)c1cccc(NC(=O)c2ccc(Cl)c([N+](=O)[O-])c2)c1 | inactive |  |
| Cc1ccc(-c2cc(-c3ccc4c(c3)OCO4)c(C#N)c(N)n2)o1 | inactive |  |
| COCCNC(=S)Nc1cc(OC)c(OC)cc1C#N | inactive |  |
| Cc1cc(NC(=O)CSc2nnc(-c3cccnc3)n2Cc2ccccc2)no1 | inactive |  |
| Cc1ccc(-n2[nH]c(C)c(/C=N/Nc3ccc([N+](=O)[O-])cc3[N+](=O)[O-])c2=O)cc1C | inactive |  |
| COc1ccc(OC)c(NC(=O)COC(=O)c2cc3c(s2)CCC3)c1 | inactive |  |

| Compound | inhibition | outcome |
| --- | --- | --- |
| CCN(CC)c1ccc(NC(=O)COc2ccccc2C)cc1S(=O)(=O)Nc1ccccc1OC | inactive |  |
| CCOC(=O)/C(=C\c1cccc(O)c1)c1nc2sc(C)c(C)c2c(=O)[nH]1 | inactive |  |
| CCCc1nnc2n1N=C(c1ccc(-c3cc(Cl)ccc3Cl)o1)CS2 | inactive |  |
| COc1cc(CNc2ccc3[nH]c(=O)[nH]c3c2)cc(Br)c1OCC(=O)NC(C)(C)C | inactive |  |
| Cc1cccc(-n2c(O)c(/C=N/N3CCOCC3)c(=O)[nH]c2=S)c1 | inactive |  |
| CCN(CC)c1ccc(NC(=O)c2ccccc2F)cc1S(=O)(=O)Nc1ccccc1OC | inactive |  |
| CCOc1cc(/C=C2/N=C(C)C(C(=O)OC)=C2O)ccc1O | inactive |  |
| COc1cccc(-n2nnnc2SCC(=O)Nc2cccc(NC(C)=O)c2)c1 | inactive |  |
| Cc1cc(/C=C(/C#N)C(=O)Nc2ccc(Cl)cc2)c(C)n1-c1cccnc1 | inactive |  |
| CC(=O)N1CCN(C(=O)c2ccc(-n3c(C)ccc3C)cc2)CC1 | inactive |  |
| COc1ccccc1NC(=O)CSc1ncn(-c2ccccc2)n1 | inactive |  |
| CCCC1(C(=O)OCC)NC(c2cc(OC)c(OC)c(OC)c2)C2C(=O)N(CC)C(=O)C21 (configuration not stated) | inactive |  |
| Cc1c(NC2=C(Cl)C(=O)N(c3ccccc3)C2=O)c(=O)n(-c2ccccc2)n1C | inactive |  |
| CC(=O)NC1=C(NC2CCS(=O)(=O)C2)C(=O)c2ccccc2C1=O (configuration not stated) | inactive |  |
| COc1ccc(NC(=O)COc2ncnc3ccccc23)cc1S(=O)(=O)N1CCOCC1 | inactive |  |
| N/C(=N\OC(=O)CCC1CCCC1)c1ccncc1 |  | inactive |
| Cc1csc(SCCn2c(N3CCN(c4ccccc4)CC3)nc3c2c(=O)[nH]c(=O)n3C)n1 | inactive |  |
| O=C(NCCN1CCOCC1)c1cc(Cl)ccc1[N+](=O)[O-] | inactive |  |
| CSc1n[nH]c2nc3c(c(=O)n12)C1(CCCC1)Cc1ccccc1-3 |  | inactive |
| COc1ccc(/C=C(/C(=O)c2cccs2)N2C=CC=CC2=C(C#N)C#N)cc1 | inactive |  |
| COc1ccc(NC(=O)c2ccco2)cc1NC(=O)c1ccco1 | inactive |  |
| CN(CCO)c1cc(Sc2nc3ccccc3s2)c2nonc2c1[N+](=O)[O-] | inactive |  |
| COC(=O)C1C2c3ccccc3OC1(C)N=c1s/c(=C/c3cnn(C)c3C)c(=O)n12 (configuration not stated) | inactive |  |
| O=C(CCCN1C(=O)c2cccc3cccc(c23)C1=O)N1CCN(c2ccccn2)CC1 |  | inactive |
